In assay [1] the test system is protease from strain SRC002 (MTCC 5564). In words: Effect of inhibitors, metals and chemicals on protease activity. As to conditions: for effect on protease activity: EGTA 10 mM, 1,10 Phenanthrolin 2 mM, Phosphoramidone 500 μg/ml, Antipain 20 μM, Bestatin 50 μg/ml, Chymostatin 20 μM, E-64 2 μM, Pepstatin 1 μM, Ebelacetone-B 1 μM. The assay is classed as biochemical, Pseudomonas aeruginosa.

For assay [2], the system named is Strain A/SRC002 (MTCC 5564). Nature of the assay: Antibiotic sensitivity by disk diffusion method, Strain A. It is filed as cell-based, Pseudomonas aeruginosa. As to conditions: Himedia antibiotic discs, Mueller Hinton Agar, 37° C. overnight. How it is done:
(§1) The sensitivity of the strains against different antibiotics was determined by disk diffusion method using commercially available (Himedia) antibiotic discs. The representative of each group of antibiotic had been tested. The antibiotics used were Ampicillin (A10), Cephadroxil (Cq30), Chloramphenicol (C30), Cloxacillin (Cx30), Cephotaxime (Ce30), Ceftazidime (Ca30), Ciprofloxacin (Cf5), Doxycycline Hydrochloride (Do30), Gentamicin (G10), Metronidazole (Mt4), Neomycin (N30), Norfloxacin (Nx10), Polymyxin B (Pb100), Rifampicin (R15), Roxithromycin (Ro30), Tetracycline (T30), Trimethoprin (Tr30), Vancomycin (Va30). The concentrations of the antibiotics in microgram per disc were mentioned in parenthesis indicated above except for Polymyxin B where it is 100 units. Mueller Hinton Agar medium (Himedia-M173) was used to grow each of the microorganisms for antibiotic sensitivity test. The log phase culture of each isolate was diluted 100 times and poured on Mueller Hinton Agar (MHA) plates. It was swirled uniformly to distribute the culture throughout the plate. After waiting for 30 mins, the cultures were carefully pipetted out from the plates and the plates were allowed to dry. Then the antibiotic disks were placed onto the MHA surface using the dispenser provided with the antibiotic discs. The plates were incubated at 37° C. for overnight. The zones of inhibition were measured. The results were evaluated using National Committee for Clinical Laboratory Standard's (NCCLS) chart provided with the antibiotic discs by Himedia. The assay was repeated three times for each organism.
For orientation: In agar diffusion tests the substance spreads into inoculated agar from a disc or well.

Another assay relates to Strain B/GZN (MTCC 5566). Nature of the assay: Antibiotic sensitivity by disk diffusion method, Strain B. It is filed as cell-based, Pseudomonas aeruginosa. Particulars: Himedia antibiotic discs, Mueller Hinton Agar, 37° C. overnight. How it is done:
as §1

[3] abbreviates: concentration not given, crude enzyme for the partial inhibitors.

Counter-ions that a name gives are not always drawn. Like-named read-outs stand apart in the source and are kept apart here. Square brackets hold non-standard residues; d marks the D form. Peptide text beside a SMILES is read from it. * marks the point of attachment. Sta = CC(C)C[C@H](N)[C@@H](O)CC(=O)O; Isovaleryl = CC(C)CC(=O)*

For `[Cr]` [Cr], the “enzyme activity retained in the presence of metal” value (shortened to “enzyme activity retained”) in assay [1] is listed as “up to 90%”.

Consider `[Hg]` [Hg], for which the “effect on enzyme activity” value in assay [1] (setting [3]) is given as “complete inhibition”.

Take `NC[C@@H]1O[C@H](O[C@H]2[C@@H](O)[C@H](O[C@@H]3[C@@H](O)[C@H](N)C[C@H](N)[C@H]3O[C@H]3O[C@H](CN)[C@@H](O)[C@H](O)[C@H]3N)O[C@@H]2CO)[C@H](N)[C@@H](O)[C@@H]1O` [Neomycine, Neomycin]: the “antibiotic sensitivity (zones of inhibition evaluated by NCCLS chart)” value was “sensitive” in assay [2] and “intermediate response” with Strain B/GZN (MTCC 5566).

Consider `[Zn]` [Zn], for which the “enzyme activity retained” value in assay [1] (concentration not given) came out at 34%.

In the case of `OO` [hydrogen peroxide], the “effect on enzyme activity” value in assay [1] (setting [3]) is “partially inhibited”.

As to `O=C(O)CN(CCOCCOCCN(CC(=O)O)CC(=O)O)CC(=O)O` [EGTA], the “effect on protease activity” value in assay [1] is recorded as “completely inhibited”. In assay [1] (setting [3]), the “effect on enzyme activity” value was “completely inhibited”.

`[Co]` [Co]: the “enzyme activity retained” value in assay [1] (concentration not given) is 82%.

Regarding `OCCS` [beta-merceptoethanol], the “effect on enzyme activity” value in assay [1] (setting [3]) is given as “partially inhibited”.

Consider `c1cnc2c(c1)ccc1cccnc12` [1,10 Phenanthrolin], for which the “effect on protease activity” value in assay [1] was “completely inhibited”. In assay [1] (setting [3]), the “effect on enzyme activity” value was “completely inhibited”.

Take `[Ni]` [Ni]: the “enzyme activity retained” value in assay [1] (concentration not given) is recorded as 70%.

As for `CC1=C(C(=O)O)N2C(=O)[C@@H](NC(=O)[C@H](N)c3ccc(O)cc3)[C@H]2SC1` [Cephadroxil], the “antibiotic sensitivity (zones of inhibition evaluated by NCCLS chart)” value in assay [2] is listed as “resistant”.

For `CCn1cc(C(=O)O)c(=O)c2cc(F)c(N3CCNCC3)cc21` [Norfloxacine, Norfloxacin], the “antibiotic sensitivity (zones of inhibition evaluated by NCCLS chart)” value in assay [2] is recorded as “sensitive”; with Strain B/GZN (MTCC 5566), “resistant”.

Consider Gentamicin [Gentamycine], for which the “antibiotic sensitivity (zones of inhibition evaluated by NCCLS chart)” value in assay [2] is given as “resistant”; in the assay with Strain B/GZN (MTCC 5566), “sensitive”.

Turning to `[Ag]` [Ag], the “enzyme activity retained” value in assay [1] (concentration not given) came out at 76%.

`O=C(O)c1cn(C2CC2)c2cc(N3CCNCC3)c(F)cc2c1=O` [Ciprofloxacin]: the “antibiotic sensitivity (zones of inhibition evaluated by NCCLS chart)” value in assay [2] is reported as “sensitive”; in the assay with Strain B/GZN (MTCC 5566), “resistant”.

On to `COc1cc(Cc2cnc(N)nc2N)cc(OC)c1OC` [Trimethoprim], for which the results for the “antibiotic sensitivity (zones of inhibition evaluated by NCCLS chart)” value (in assay [2]; in the assay with Strain B/GZN (MTCC 5566)) were “resistant” and “intermediate response”, respectively.

Consider `CC(C)C[C@H](NC(=O)[C@H]1O[C@@H]1C(=O)O)C(=O)NCCCCN=C(N)N` [Strain E-64, E-64], for which the “effect on protease activity” value in assay [1] is “almost no effect”. Further, in assay [1] (setting [3]), the “effect on enzyme activity” value is “no inhibitory effect”.

Regarding `CC(C)C[C@H](NC(=O)[C@@H](NC(=O)N[C@@H](Cc1ccccc1)C(=O)O)[C@@H]1CCN=C(N)N1)C(=O)N[C@H](C=O)Cc1ccccc1` [Chymostatin], the “effect on protease activity” value in assay [1] is listed as “almost no effect”. The “effect on enzyme activity” value in assay [1] (setting [3]) was “no inhibitory effect”.

With `O=C(O)CN(CCN(CC(=O)O)CC(=O)O)CC(=O)O` [EDTA], the “effect on enzyme activity” value in assay [1] is listed as “inactivated”.

Turning to `[Pb]` [Pb], the “enzyme activity retained” value in assay [1] (concentration not given) was found to be 50%.

For the compound `CC(C)CC(=O)N[C@H](C(=O)N[C@H](C(=O)N[C@@H](CC(C)C)[C@@H](O)CC(=O)N[C@@H](C)C(=O)N[C@@H](CC(C)C)[C@@H](O)CC(=O)O)C(C)C)C(C)C` [Pepstatin] (Isovaleryl-VV[Sta]A[Sta]-OH), in assay [1], the “effect on protease activity” value is given as “almost no effect”. Besides, the “effect on enzyme activity” value in assay [1] (setting [3]) is recorded as “no inhibitory effect”.

As to Triton X 100, the “effect on enzyme activity” value in assay [1] (setting [3]) is on record as “partially inhibited”.

As to `Cc1ncc([N+](=O)[O-])n1CCO` [Metronidazole], the “antibiotic sensitivity (zones of inhibition evaluated by NCCLS chart)” value in assay [2] was “resistant”.

Take `[Al]` [Al]: the “enzyme activity retained” value in assay [1] (concentration not given) is reported as 70%.

On to `CN[C@H](CC(C)C)C(=O)N[C@H]1C(=O)N[C@@H](CC(N)=O)C(=O)N[C@H]2C(=O)N[C@H]3C(=O)N[C@H](C(=O)N[C@H](C(=O)O)c4cc(O)cc(O)c4-c4cc3ccc4O)[C@H](O)c3ccc(c(Cl)c3)Oc3cc2cc(c3O[C@@H]2O[C@H](CO)[C@@H](O)[C@H](O)[C@H]2O[C@H]2C[C@](C)(N)[C@H](O)[C@H](C)O2)Oc2ccc(cc2Cl)[C@H]1O` [Vancomycin], for which the “antibiotic sensitivity (zones of inhibition evaluated by NCCLS chart)” value (in assay [2]; in the assay with Strain B/GZN (MTCC 5566)) was “resistant” throughout.

In the case of `Cc1onc(-c2ccccc2Cl)c1C(=O)N[C@@H]1C(=O)N2[C@@H]1SC(C)(C)[C@@H]2C(=O)O` [Cloxacillin], the “antibiotic sensitivity (zones of inhibition evaluated by NCCLS chart)” value in assay [2] was “resistant”.

As for `CO/N=C(\C(=O)N[C@@H]1C(=O)N2C(C(=O)O)=C(COC(C)=O)CS[C@H]12)c1csc(N)n1` [Cephotaxime], the results for the “antibiotic sensitivity (zones of inhibition evaluated by NCCLS chart)” value (in assay [2]; in the assay on Strain B/GZN (MTCC 5566)) were “resistant” and “intermediate response”, respectively.

Take `CC(C)C[C@H](NC(=O)[C@@H](O)[C@H](N)Cc1ccccc1)C(=O)O` [Bestatin]: in assay [1], the “effect on protease activity” value is on record as “almost no effect”. In assay [1] (setting [3]), the “effect on enzyme activity” value is “no inhibitory effect”.

As to `CC(C)(O/N=C(\C(=O)N[C@@H]1C(=O)N2C(C(=O)[O-])=C(C[n+]3ccccc3)CS[C@H]12)c1csc(N)n1)C(=O)O` [Ceftazidime], the “antibiotic sensitivity (zones of inhibition evaluated by NCCLS chart)” value was “resistant” in assay [2] and “intermediate response” with Strain B/GZN (MTCC 5566).

Take `CN(C)[C@@H]1C(=O)C(C(N)=O)=C(O)[C@@]2(O)C(=O)C3=C(O)c4c(O)cccc4[C@@](C)(O)[C@H]3C[C@@H]12` [Tetracyclin, Tetracycline]: the “antibiotic sensitivity (zones of inhibition evaluated by NCCLS chart)” value (in assay [2]; in the assay on Strain B/GZN (MTCC 5566)) was “resistant” in each case.

For `C[C@H]1c2cccc(O)c2C(=O)C2=C(O)[C@]3(O)C(=O)C(C(N)=O)=C(O)[C@@H](N(C)C)[C@@H]3[C@@H](O)[C@@H]21` [Doxycycline hydrochloride, Doxycycline Hydrochloride], the “antibiotic sensitivity (zones of inhibition evaluated by NCCLS chart)” value (in assay [2]; in the assay with Strain B/GZN (MTCC 5566)) was “resistant” in each case.

For `[Cu]` [Cu], the “enzyme activity retained” value in assay [1] (concentration not given) is reported as 50%.

Turning to `CC(C)C[C@H](NP(=O)(O)O[C@@H]1O[C@@H](C)[C@H](O)[C@@H](O)[C@H]1O)C(=O)N[C@@H](Cc1c[nH]c2ccccc12)C(=O)O` [Phosphoramidone], the “effect on protease activity” value in assay [1] is “completely inhibited”. The “effect on enzyme activity” value in assay [1] (setting [3]) is listed as “completely inhibited”.

As to `O=C(N[C@H](CO)[C@H](O)c1ccc([N+](=O)[O-])cc1)C(Cl)Cl` [Cloramphenicol, Chloramphenicol], the “antibiotic sensitivity (zones of inhibition evaluated by NCCLS chart)” value is on record as “resistant” in assay [2] and “intermediate response” with Strain B/GZN (MTCC 5566).

As for `[Cd]` [Cd], in assay [1] (concentration not given), the “enzyme activity retained” value is reported as 34%.

Take `CC[C@@H](C)[C@@H](O)[C@H](C)C(=O)[C@H](C)/C=C(\C)C[C@H](C)[C@@H]1OC(=O)[C@H]1CC` [Ebelacetone-B]: the “effect on protease activity” value in assay [1] is given as “almost no effect”. In addition, the “effect on enzyme activity” value in assay [1] (setting [3]) is “no inhibitory effect”.

With `CC1(C)S[C@@H]2[C@H](NC(=O)[C@H](N)c3ccccc3)C(=O)N2[C@H]1C(=O)O` [Ampicillin], the “antibiotic sensitivity (zones of inhibition evaluated by NCCLS chart)” value (in assay [2]; with Strain B/GZN (MTCC 5566)) was “resistant” throughout.

Consider Polymyxin B [PolymyxinB], for which the “antibiotic sensitivity (zones of inhibition evaluated by NCCLS chart)” value (in assay [2]; in the assay with Strain B/GZN (MTCC 5566)) was “resistant” throughout.

For the origin of these results see patent US8524481B2, “Hide processing methods and compositions” (priority 2010, dated 2013).
